For data set [1], the system named is rats. To be noted: Nobuyuki Ito 1982, cited via U.S. Pat. No. 5,043,100; cited from earlier work.
Data set [2] is described as follows: DPPH radical quenching / free radical scavenging test. It counts as biochemical. Particulars: Conc. of antioxidant 20 μM. As for the experimental part: The radical quenching efficiency of the extract was also tested by widely reported standard methods like di-phenyl picryl hydrazyl (DPPH) radical according to the methods of W. Brand Williams, M. E. Cuvelier and C. Berset, Lebesm.-Wiss.

A short description of data set [3]: DSC oxidative stability of safflower oil, isothermal 150° C. under oxygen flow. Particulars: fresh safflower oil; antioxidant 200 mg per Kg of oil. The source says:
DSC experiments: Differential Scanning Calorimeter. The Mettler Toledo instrument used for carrying out the studies, is configured to follow oxidative stability of vegetable oils at a desired higher temperature under oxygen flow. […] With the help of an inbuilt program of the instrument, the induction period in ‘time-units’ could be calculated. This is indicated in the diagram as ‘onset’ time. Longer ‘onset’ time indicates better protection. […] DSC profiles of purified sesame extracts have been included here. As explained elsewhere, the Figure represents overlaid DSC profiles of safflower oil containing synthetic and sesame antioxidants at few select concentrations. The onset time has been recorded in the printout of the profile. The oxidative stability of vegetable oils containing synthetic antioxidants (BHT and TBHQ at 50-200 ppm) and sesame extract at different levels 3 to 1000 ppm were also tested in the Differential Scanning Calorimeter (Mettler Toledo, model 821) under flow of oxygen (40 ml/min.). The heating regime followed was isothermal at 150° C. and from the curves obtained (FIGS. 6, 7), the ‘onset-time’ of oxidative changes under identical conditions could be found out by making use of an inbuilt program of the instrument, the induction period represented by the onset time, can be correlated with the onset of rancidity.

Data set [4] is described as follows: DSC oxidative stability of soybean oil, isothermal 150° C. under oxygen flow. Particulars: soybean oil stored one week at 60° C.; antioxidant 200 mg per Kg of oil. The source says:
DSC experiments: Differential Scanning Calorimeter. The Mettler Toledo instrument used for carrying out the studies, is configured to follow oxidative stability of vegetable oils at a desired higher temperature under oxygen flow. […] With the help of an inbuilt program of the instrument, the induction period in ‘time-units’ could be calculated. This is indicated in the diagram as ‘onset’ time. Longer ‘onset’ time indicates better protection. […] DSC profiles of purified sesame extracts have been included here. In FIG. 6, the oxidative stability of soybean oil stored at 60° C. for 7 days has been depicted. (The storage study continued for one month. The extent of protection as measured in DSC was studied here.). Each experiment such as Control alone, (soybean oil+BHT), (oil+TBHQ), (oil+Sesame extract at 10 ppm, 50 ppm, 200 ppm) etc were carried out separately. For comparison sake, the different profiles have been overlaid in the same figure. In FIG. 6, the concentrations of BHT and TBHQ are 200 mg per Kg. of oil. For comparison, the profile of oil containing sesame extract at 50 ppm is also depicted in the overlaid diagram. […]

`COc1ccc(O)c(C(C)(C)C)c1` [BHA, Butylated Hydroxy Anisole]: the carcinogenicity entry in data set [1] is listed as “carcinogenic in rats”. In the case of `Cc1cc(C(C)(C)C)c(O)c(C(C)(C)C)c1` [BHT, Butylated Hydroxy Toluene], the “Free radical Scavenging Effect after 30 min.” value in data set [2] is 81.61. In addition, the figures for the DSC onset time in data set [3] and in data set [4] were 7.23 min and 7.30 min, respectively. The matching figures for `CC(C)(C)c1cc(O)ccc1O` [TBHQ, tert-Butyl Hydro Quinone]: 98.88, 10.01 min and 20.48 min. As for `O=C(OC[C@H]1O[C@@H](OC(=O)c2cc(O)c(O)c(OC(=O)c3cc(O)c(O)c(O)c3)c2)[C@H](OC(=O)c2cc(O)c(O)c(OC(=O)c3cc(O)c(O)c(O)c3)c2)[C@@H](OC(=O)c2cc(O)c(O)c(OC(=O)c3cc(O)c(O)c(O)c3)c2)[C@@H]1OC(=O)c1cc(O)c(O)c(OC(=O)c2cc(O)c(O)c(O)c2)c1)c1cc(O)c(O)c(OC(=O)c2cc(O)c(O)c(O)c2)c1` [Tannic Acid], the “Free radical Scavenging Effect after 30 min.” value in data set [2] turned out to be 98.88. On the same count and under the same terms, as for Catechin, the figure is 98.51.

The values are drawn from US7396554B2, “Antioxidant sesame extract” (Council of Scientific & Industrial Research, priority 2002, dated 2008).
